Entries after “also recorded” stand apart in the source; their conditions may differ.
How the values were obtained:
[1] = system: HCC PDTX mouse model; assay: HCC patient-derived tumor xenograft (PDTX #1) mouse model; type: in vivo, mice; conditions: for body weight / tumor cellularity (H&E staining) / gross anatomical examination of vital organs / histopathology of vital organs (H&E): ZAK-I-57 15 and 30 mg/kg, sorafenib 30 mg/kg; for gross anatomical examination of vital organs / histopathology of vital organs (H&E): heart, liver, spleen, lung, kidney
Experimental: (§1) Male BALB/c nude mice (6-8 weeks old) were obtained from the Centralized Animal Facilities at the Hong Kong Polytechnic University. All animals were bred and housed under specific pathogen-free conditions, with access to sterile food and water. Environmental conditions were strictly controlled, with temperature maintained at 23±2° C., relative humidity between 30%-70%, and a 12-hour light/dark cycle. Mice were group-housed in accordance with institutional guidelines for recommended stocking density. The animal experiments were conducted according to institutional guidelines, and the experimental procedures were approved by the PolyU Animal Experimentation Ethics Committee (Ref. No. 19-20/57-ABCT-R-STUDENT).
The procedure for the establishment of PDTX #1 was previously described. Tumor cells from PDTX #1 was inoculated subcutaneously on the back of nude mice. When the tumors reached approximately 1,000 mm^3, mice with the first generation of xenografts (P1) were sacrificed, and the xenografts were isolated and expanded for the second generation (P2). When P2 xenografts reached an average volume of 70 mm^3, mice were subjected to ZAK-I-57 and sorafenib treatment. The development of PDTX was approved by the Institutional Review Board of the University of Hong Kong/Hospital Authority Hong Kong West Cluster (UW 17-056) and informed consents were obtained from patients.
(§2) The Huh7 cells and tumor tissues were lysed on ice using the lysis buffer. Protein concentration was quantified using Bradford assay (Bio-Rad, Hercules, CA, USA). Equivalent amounts of protein (25-50 μg) were loaded onto 10% sodium dodecyl sulfate-polyacrylamide gel electrophoresis (SDS-PAGE) and transferred to polyvinylidene fluoride (PVDF) membranes. Membranes were blocked with 5% non-fat milk in Tris-buffered saline Tween 20 (TBST) for an hour. The blots were incubated with primary antibodies (EGFR (4267S, Cell signaling technology, MA, USA), c-Myc (5605S, Cell signaling technology, MA, USA), Bax (2772S, Cell signaling technology, MA, USA), Bcl-2 (sc-7382, Santa Cruze, TX, USA), ERBB2 (2165S, Cell signaling technology, MA, USA), and α-tubulin (62204, Invitrogen, MA, USA), 1:1000) at 4° C. overnight. Subsequently, the membranes were washed thrice (15 min each) with TBST solution and incubated for 1 h with secondary horseradish peroxidase-conjugated antibodies (NA934 and NA931, Cytiva, MA, USA, 1:5000). Blots were then detected using an ECL kit and photographed using a ChemiDoc Imaging System (Bio-Rad, MA, USA). The bands were quantified using the ImageJ software (NIH, USA). The intensities of the bands for each protein sample were normalized to those of α-tubulin (internal standard protein). Quantitative data are presented as a fold change of untreated control.
(§3) Tumors were fixed in 4% formalin, embedded in paraffin, and sectioned at […] thickness for IHC staining. Ki-67 primary antibody (ab16667, Abcam, MA, USA) and anti-mouse IgG recombinant secondary antibody (7056S, Cell Signaling Technology, MA, USA) were used for IHC staining. Hemotoxin (Invitrogen, MA, USA) was used to stain nuclei. The number of positively stained cells in Ki-67-stained slides was evaluated using ImageJ software (NIH, MD, USA).
(§4) H&E staining was performed on histological sections of organs (heart, spleen, kidney, liver, and lung) to examine the toxicity of ZAK-I-57 in PLC/PRF/5 tumor-bearing and PDTX model mice. Briefly, the histological slides were deparaffinized using 100% xylene (v/v). The slides were then washed several times with ethanol solutions of various concentrations (70-100%, v/v) and immersed in hematoxylin for 5 min, followed by a quick dip in acidic alcohol. Next, the slides were immersed in Scott's tap water for 3 min and in 1% eosin for 30 s. Finally, the slides were dehydrated using ethanol solutions of various concentrations (70%-100%, v/v) and 100% xylene (v/v) and mounted using a mounting medium.

[2] = system: PLC/PRF/5 tumor-bearing mice; assay: PLC/PRF/5 tumor-bearing mouse model; type: in vivo; conditions: for tumor cellularity (H&E staining) / gross anatomical examination of vital organs / histopathology of vital organs (H&E) / body weight: sorafenib 30 mg/kg; for tumor cellularity (H&E staining): vs vehicle control; for gross anatomical examination of vital organs / histopathology of vital organs (H&E): heart, liver, spleen, lung, kidney; for body weight: oral gavage daily, 20 days
Experimental: as §1
PLC/PRF/5 cells (5×10^5) were suspended in 100 μL PBS with Matrigel (1:1 ratio) and injected into the right back of nude mice. Small tumors (<70 mm^3) were formed two weeks after cell inoculation. Mice were then randomized into the vehicle control group, ZAK-I-57 treated groups (15 mg/kg and 30 mg/kg), or sorafenib (30 mg/kg) groups. Mice were administered 200 μL of vehicle water and drugs by oral gavage daily for three weeks. Tumor size was measured twice a week, and tumor volumes were calculated using the formula [(length×width×depth)/2 mm^3] while each mouse was weighed. At the end of the experiment, the mice were sacrificed, and the tumors and organs were collected for further experiments.
as §2, §3, §4

[3] = system: PLC/PRF/5 cells; assay: MTT cytotoxicity assay, PLC/PRF/5; type: cell-based; conditions: for cytotoxicity (cell viability): PLC/PRF/5, ZAK-I-57 24 h, ZAK-I-64 and ZAK-I-68 48 h
Experimental: (§5) Huh7 and PLC/PRF/5 (CRL-8024™) cells were purchased from Thermo Fisher Scientific and the ATCC, respectively. MIHA was kindly provided by Dr. J. R. Chowdhury, Albert Einstein College of Medicine, New York. The cell lines were cultured in Dulbecco's modified Eagle medium (DMEM, Gibco, MA, USA) supplemented with 10% fetal bovine serum (FBS, BI, MA, USA) and 1× penicillin-streptomycin solution (Solarbio) at 37° C. in a humid, 5% CO2 atmosphere.
(§6) Huh7 and PLC/PRF/5 cells at a density of 5×10^3 cells/well were cultured in 96-well plates and incubated at 37° C. in 5% CO2. Both cell lines were treated with different concentrations of benzoxazinone derivatives (ZAK-I-57, ZAK-I-64, and ZAK-I-68). Both cell lines were incubated with ZAK-I-57 for 24 h and for 48 h with ZAK-I-64 and ZAK-I-68. MTT (3-[4,5-dimethylthiazol-2-yl]-2,5-diphenyltetrazolium bromide) solution was then added to each well and incubated for 3 h in a CO2 atmosphere at 37° C. Insoluble formazan crystals were dissolved by adding 100 μL of dimethyl sulfoxide (DMSO) to each well, followed by orbital agitation for 10 min. A minimum of three biological replicates were analyzed using a plate reader to determine IC50. The same experiment was performed with MIHA hepatocyte cells to evaluate the selectivity cytotoxicity of ZAK-I-57.

[4] = system: c-Myc; assay: Western blot of c-Myc expression in Huh7 cells; type: cell-based
Experimental: as §2

[5] = system: Huh7 cells; assay: MTT cytotoxicity assay, Huh7; type: cell-based; conditions: for cytotoxicity (cell viability): Huh7, ZAK-I-57 24 h, ZAK-I-64 and ZAK-I-68 48 h
Experimental: as §5, §6

[6] = system: ERBB2; assay: Western blot of ERBB2 expression in Huh7 cells; type: cell-based
Experimental: as §2

[7] = system: EGFR; assay: Western blot of EGFR expression in Huh7 cells; type: cell-based
Experimental: as §2

[8] = MTT cytotoxicity assay, MIHA normal hepatocytes; type: cell-based; conditions: human, MIHA normal hepatocyte cells, all concentrations, read-out: cell viability
Experimental: as §5, §6

[9] = system: MIHA cells; assay: MTT cytotoxicity assay, MIHA normal hepatocytes; type: cell-based; conditions: Hepatocyte
Experimental: as §5, §6

[10] = ZAK-I-57 15 and 30 mg/kg, vs vehicle control and sorafenib 30 mg/kg

Compound: CNC(=O)c1cc(Oc2ccc(NC(=O)Nc3ccc(Cl)c(C(F)(F)F)c3)cc2)ccn1 [sorafenib, reference compound]
- body weight [1]: Slight variations
- tumor cellularity (H&E staining) ([1]; vs vehicle control): marked reduction in tumor cellularity
- gross anatomical examination of vital organs [1]: maintained tissue morphology comparable to the vehicle control
- histopathology of vital organs (H&E) [1]: absence of significant pathological changes
- tumor cellularity (H&E staining) ([2]; ZAK-I-57 15 and 30 mg/kg): marked reduction in tumor cellularity
- gross anatomical examination of vital organs ([2]; ZAK-I-57 15 and 30 mg/kg): maintained tissue morphology comparable to the vehicle control
- histopathology of vital organs (H&E) ([2]; ZAK-I-57 15 and 30 mg/kg): absence of significant pathological changes
- body weight ([2]; ZAK-I-57 15 and 30 mg/kg): only slight variation

Compound: Cc1ccccc1-c1nc2cc([N+](=O)[O-])ccc2c(=O)o1 [ZAK-I-64, 2-(2-methylphenyl)-7-nitro-4H-3,1-benzoxazin-4-one]
- cytotoxicity (cell viability) [3]: concentration-dependent increase in cytotoxicity
- c-Myc expression ([4]; Huh7, 48 h treatment): no appreciable effect
- c-Myc expression ([4]; Huh7, 72 h treatment): significant downregulation
- cytotoxicity (cell viability) [5]: concentration-dependent increase in cytotoxicity
- ERBB2 expression ([6]; Huh7, 48 h treatment): no appreciable effect
- ERBB2 expression ([6]; Huh7, 72 h treatment): significant downregulation
- EGFR expression ([7]; Huh7, 48 h treatment): no appreciable effect
- EGFR expression ([7]; Huh7, 72 h treatment): significant downregulation

Compound: O=c1oc(-c2ccc3ccccc3c2)nc2cc([N+](=O)[O-])ccc12 [ZAK-I-57, 2-(naphthalen-2-yl)-7-nitro-4H-3,1-benzoxazin-4-one]
- IC50 against HCC cells, compared with sorafenib and artesunate ([3]; HCC cells (PLC/PRF/5)): lower than sorafenib and artesunate
- cytotoxicity (cell viability) [3]: concentration-dependent increase in cytotoxicity
- c-Myc expression ([4]; Huh7, 48 h treatment): significant downregulation
- IC50 against HCC cells, compared with sorafenib and artesunate ([5]; HCC cells (Huh7)): lower than sorafenib and artesunate
- cytotoxicity (cell viability) [5]: concentration-dependent increase in cytotoxicity
- ERBB2 expression ([6]; Huh7, 48 h treatment): significant downregulation
- viability at 24 h ([8]; 24 h): > 90%
- viability at 48 h ([8]; 48 h): > 90%
- IC50 ([9]; 24 h): > 100 µM
- IC50 ([9]; 48 h): > 100 µM
- IC50 ([9]; time not stated): > 100 µM
- percentage of tumor growth ([1]; 15 mg/kg and 30 mg/kg, vs vehicle control): markedly diminished
- Bax expression in tumor (western blot) ([1]; 30 mg/kg): significantly upregulating
- Bcl-2 expression in tumor (western blot) ([1]; 30 mg/kg): downregulating
- EGFR expression in tumor (western blot) ([1]; 30 mg/kg): downregulated
- Ki-67 suppression compared with sorafenib ([1]; 30 mg/kg): significantly greater Ki-67 suppression than sorafenib
- c-Myc expression in tumor (western blot) ([1]; 30 mg/kg): downregulated
- tumor cell density and necrosis (H&E staining) ([1]; 30 mg/kg): substantial decrease in cell density and necrosis
- tumor volume reduction compared with sorafenib ([1]; 30 mg/kg): outperforming sorafenib
- tumor weight ([1]; 30 mg/kg): significant reduction; also recorded: outperforming sorafenib
- Ki-67 expression in tumor (IHC) ([1]; 15 and 30 mg/kg): inhibition of Ki-67 expression
- tumor progression (tumor volume) ([1]; 15 and 30 mg/kg): significantly inhibited tumor progression in a dose-dependent manner
- body weight [1]: no significant difference
- tumor cellularity (H&E staining) ([1]; vs vehicle control): marked reduction in tumor cellularity
- gross anatomical examination of vital organs [1]: maintained tissue morphology comparable to the vehicle control
- histopathology of vital organs (H&E) [1]: no histological abnormalities were observed
- EGFR expression ([7]; Huh7, 48 h treatment): significant downregulation
- Ki-67 suppression compared with sorafenib ([2]; 30 mg/kg): significantly greater Ki-67 suppression than sorafenib
- tumor cell density and necrosis (H&E staining) ([2]; 30 mg/kg): substantial decrease in cell density and necrosis
- tumor volume reduction compared with sorafenib ([2]; 30 mg/kg): outperforming sorafenib
- tumor weight reduction compared with sorafenib ([2]; 30 mg/kg): outperforming sorafenib
- Bax expression in tumor (western blot) ([2]; 30 mg/kg, vs control): increase in the expression
- Bcl-2 expression in tumor (western blot) ([2]; 30 mg/kg, vs control): significantly attenuated
- EGFR expression in tumor (western blot) ([2]; 30 mg/kg, vs control): significantly attenuated
- c-Myc expression in tumor (western blot) ([2]; 30 mg/kg, vs control): significantly attenuated
- Ki-67 expression in tumor (IHC) ([2]; 15 and 30 mg/kg): inhibition of Ki-67 expression
- tumor growth inhibition ([2]; 15 and 30 mg/kg): significantly inhibited tumor growth
- tumor cellularity (H&E staining) ([2]; ZAK-I-57 15 and 30 mg/kg): marked reduction in tumor cellularity
- tumor volume [2, 10]: marked reduction
- tumor weight [2, 10]: marked reduction
- gross anatomical examination of vital organs ([2]; ZAK-I-57 15 and 30 mg/kg): maintained tissue morphology comparable to the vehicle control
- histopathology of vital organs (H&E) ([2]; ZAK-I-57 15 and 30 mg/kg): no histological abnormalities were observed
- body weight ([2]; ZAK-I-57 15 and 30 mg/kg): no significant changes

Compound: O=c1oc(-c2ccc(O)cc2)nc2cc([N+](=O)[O-])ccc12 [ZAK-I-68, 2-(4-hydroxyphenyl)-7-nitro-4H-3,1-benzoxazin-4-one]
- cytotoxicity (cell viability) [3]: concentration-dependent increase in cytotoxicity
- c-Myc expression ([4]; Huh7, 48 h treatment): no appreciable effect
- c-Myc expression ([4]; Huh7, 72 h treatment): significant downregulation
- cytotoxicity (cell viability) [5]: concentration-dependent increase in cytotoxicity
- ERBB2 expression ([6]; Huh7, 48 h treatment): no appreciable effect
- ERBB2 expression ([6]; Huh7, 72 h treatment): significant downregulation
- EGFR expression ([7]; Huh7, 48 h treatment): no appreciable effect
- EGFR expression ([7]; Huh7, 72 h treatment): significant downregulation
